Results on 3 molecules are retold here after US7794965B2, “Method of identifying modulators of PP2A methylase” (Signum Biosciences, Inc., priority 2002, dated 2010).

Like-named read-outs stand apart in the source and are kept apart here.

Test [1] deals with PP2A phosphatase activity (Homo sapiens, UniProt P67775). The note with it: cited from earlier work.
For another test, the target named is methylation of PP2A (Homo sapiens, UniProt P67775). The following applies: cited from earlier work.
A further test concerns cultured human neurons. The following applies: Merrick, 1997; cited from earlier work.
For test [2], the system named is PP2A methylation in SH-SY5Y neuroblastoma cells. The experiment in a line: PP2A methylation in cultured SH-SY5Y cells, western blotting with antibodies 6A3 (total) and 4D9 (methylated). Type of test: cell-based. The note with it: homocysteine 0, 25, 50, 100, and 200 mM, three hours. The protocol: SH-SY5Y cells were propagated in a 1:1 mixture of Eagle's Minimum Essential Medium and Ham's F12 medium supplemented with 10% Fetal Bovine Serum, Penicillin (100 units/ml)/Streptomycin ([…]) and 2 mM L-Glutamine. The flasks were incubated at 37° C. (5% CO2). Media was changed every 4-6 days until the cells were confluent. On confluency, cells were treated with 25-200 mM homocysteine for 3 hours. […] Each membrane was blocked for 1 hr in 5% milk, followed by an hour incubation in antibodies, 6A3 (1:50) and 4D9 (1:25) which recognize total and methylated PP2A, respectively.
Inhibition of PP2A methylation by homocysteine was determined in cultured cells. Total PP2A and methylated PP2A was determined by western blotting in SH-SY5Y neuroblastoma cells. Homocysteine was added to confluent SH-SY5Y cells to concentrations of […]. Three hours after adding homocysteine the cells were harvested into cold PBS, mixed with SDS sample buffer, and then analyzed by SDS-PAGE and western blotting. To determine total PP2A, the blots were probed with monoclonal antibody 6A3, which recognizes total PP2A. To determine methylated PP2A the blots were probed with monoclonal antibody 4D9, which recognizes methylated but not unmethylated PP2A.
A general note: In western blotting, separated proteins are transferred to a membrane and probed.

The conditions of test [3]: for Hcy, total plasma homocysteine, ratio methionine-enriched / not enriched / SAH in brain homogenates, ratio methionine-enriched / not enriched / SAM in brain homogenates, ratio methionine-enriched / not enriched: B6, B12. The source says:
(§1) Male C57BL/J6 mice were obtained from the Jackson Laboratories (Bar Harbor, Me.) at 4 weeks of age. Mice were fed on a vitamin sufficient or a vitamin deficient diet for 9 weeks. All of the vitamin-sufficient diets contained folate, vitamin B6, and vitamin B12. All of the vitamin deficient diets lacked these vitamins. […] Another group was fed a vitamin deficient diet that contained basal levels of methionine (Harlan Teklad TD00428). The same was true for mice on the vitamin-sufficient diet. One group was fed a diet enriched for methionine (Harlan Teklad TD98002) and another was fed standard rodent chow 5001 c (Lab Diets). The mice were allowed free access to both food and water.
SAM and SAH levels were measured by high performance liquid chromatography (HPLC) according to the method described by Fu et al. in “Interrelations between plasma homocysteine and intracellular S-adenosylhomocysteine;” Biochem Biophys Res Commun 271: 47-53 (2000), which is incorporated herein by reference in its entirety particularly in parts pertinent to HPLC assays of SAM and SAH.
Samples of mouse brain were weighed and homogenized in two times weight/volume of 0.5 HCIO4. Samples were centrifuged at 12,500 g for 5 min and the supernatant was filtered through a 0.22 mm membrane. Aliquots of 25 ml were injected and run on a hypersil […] particle size, c18 (ODS), 250×4.6 mm (Phenomenex) column with an isocratic elution at 1.3 ml/min. The mobile phase consisted of 0.10 mM sodium acetate, 2.4 mM heptanesulfonic acid, 4.2% acetonitrile, and 50 mM sodium perchlorate. The pH was adjusted to 3.5 with 70% perchloric acid.
Standards were run at five different concentrations: 10,000, 5,000, 2,000, 1,000, and 500 pM for SAM, and 10,000, 5,000, 1,000, 100, and 50 μM for SAH. Linear curves, obtained from the SAM and SAH standards, were used to calculate concentrations of SAM and SAH in the brain homogenates.
Homocysteine was measured by HPLC in serum samples reduced with tri-n-butylphosphine.
Serum was prepared from whole blood, which was allowed to clot for 30 min on ice and then centrifuged. Samples were aliquoted, snap frozen and stored at −80° C. for analysis. For analysis, 150 ml of serum was thawed and reduced in a mixture containing 50 ml of 0.1 M potassium borate, 2 mM EDTA, pH 9.5, 0.2 mM mercaptopropionylglycine, and 20 ml of 100 ml/I of tri-n-butylphosphine in dimethylformamide. The reduction was allowed to proceed for 30 min on ice after which samples were mixed with 125 ml of 0.6 M perchloric acid containing 1 mM EDTA and allowed to react at room temperature for 10 min, and then centrifuged at 15500 g for 10 min. 100 ml was withdrawn from the middle of the supernatant and mixed with 200 ml of 0.2M potassium borate, pH 10.5, containing 5 mM EDTA. 100 ml of 1.0 gm Ammonium 7-fluorobenzo-2-oxa-1,3-diazole-4-sulphonate/I.OL 0.2M potassium borate, pH 9.5, was added and the mixture incubated at 60° C. for 60 min. Samples were cooled and then analyzed using HPLC. 10 ml of derivatized sample was used for each injection. Buffer A (0.1 M acetate buffer, pH 4.0, containing 20 ml/I methanol) and Buffer B (0.1 M acetate buffer, pH 6.0, containing 50 ml/I methanol) were run at a flow rate of 1.0 ml/min from A to B over 12.5 min then 2.5 min of B, a 3.0 min gradient back to A and 2.0 min A before next injection. A standard was also analyzed to quantify values of homocysteine. Mercaptopropionylglycine was added to the reduction buffer as an internal standard to monitor any potential loss during reduction.
Mice were fed on diets containing or deficient in folate, vitamin B6 and B12 as set out above. SAM, SAH and Hcy were determined as described above.
(§2) The effects of methionine enrichment were determined either in the presence or absence of a deficiency for folate, vitamin B6, and vitamin B12.

The next test relates to tau. The note with it: for CP13 tau phosphorylation, ratio methionine-enriched / not enriched / PHF1 tau phosphorylation, ratio methionine-enriched / not enriched / TG5 total tau, ratio methionine-enriched / not enriched: B6, B12.
Description: as §1
Mice brains were homogenized in 10 times volume/weight buffer containing:
62.5 mM Tris-HCl, pH 6.8, 10% (w/v) glycerol, 5% (v/v) [3-mercaptoethanol, 2.3% (w/v) SDS, 100 nM okadaic acid (OA), 1 mM phenylmethylsulfonyl fluoride, and 1 mM EDTA. This is a modified version of the buffer reported by Planel et al. [Planel, 2001 #54]. The homogenates were boiled for 5 mins and then centrifuged for 15 mins at 4° C. in a Fisher micro-centrifuge model 235A. The supernatant was then diluted 1:2 in SDS-sample buffer and loaded on a 12.5% percent SDS-PAGE gel. Gels were run at 200 V, transferred onto PVDF membrane at 100 V for 1 hr. Each membrane was blocked for 1 hr in 5% milk, followed by overnight incubation in antibodies, CP13 (1:200) and PHF1 (1:500) which recognize phosphoserine 202 and phosphoserine 396/404 respectively [Greenberg, 1992 #55; Otvos, 1994 #59] and TG5 (1:1000), which recognizes a phosphorylation independent epitope on tau [Jicha, 1997 #56]. The following day, membranes were washed 5× for 5 mins each with TBS containing tween (TBST) and then incubated with goat anti-mouse IgG horseradish peroxidase coupled secondary antibody, diluted 1:25,000 in 5% milk prepared in TBS, for 1 hr. Following the secondary antibody incubation, the membranes were washed 5× for 10 mins in TBST and developed with ECL plus (Amersham). Signal intensities of X-ray film exposures for each membrane were quantified by scanning densitometry using NIH Image.
Mice were fed on diets containing or deficient in folate, vitamin B6, and vitamin B12 as described above. Tau phosphorylation was determined in the mice by SDS-PAGE and western blotting using the procedures described above. The western blots were probed using three different tau-specific monoclonal antibodies, as discussed above.
as §2
Ratios are given for values obtained from mice fed diets enriched with methionine divided by values obtained from mice fed diets not enriched for methionine.
Feeding and assays were performed as described above. Hcy, total plasma homocysteine; SAM and SAH values measured in brain homogenates. CP13 and PHF1, tau phosphorylation and TG5, total tau (see data below) body, brain, and heart weights (see data in examples above).

The mark [4] stands for this setting: excess methionine added to vitamin-deficient diets.

Chain of PP2A phosphatase activity (P67775 whole entry): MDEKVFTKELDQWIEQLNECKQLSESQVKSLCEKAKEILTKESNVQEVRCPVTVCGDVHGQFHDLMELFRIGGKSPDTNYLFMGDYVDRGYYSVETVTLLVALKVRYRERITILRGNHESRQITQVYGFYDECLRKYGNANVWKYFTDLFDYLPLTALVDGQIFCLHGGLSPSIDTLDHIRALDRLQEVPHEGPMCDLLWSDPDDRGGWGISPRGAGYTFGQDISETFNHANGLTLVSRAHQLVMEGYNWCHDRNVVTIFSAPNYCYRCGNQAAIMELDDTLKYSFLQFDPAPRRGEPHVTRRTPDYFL
Chain of methylation of PP2A (P67775 whole entry): as above

Take `C=C1[C@@H](O)[C@@H]2O[C@]3(CC[C@H](/C=C/[C@@H](C)[C@@H]4CC(C)=C[C@@]5(O[C@H](C[C@@](C)(O)C(=O)O)CC[C@H]5O)O4)O3)CC[C@H]2O[C@@H]1[C@@H](O)C[C@H](C)[C@H]1O[C@@]2(CCCCO2)CC[C@H]1C` [Okadaic acid]: the “inhibition of PP2A phosphatase activity” value in test [1] was “potent inhibitor”. For the same molecule, the “inhibition of methylation of PP2A” value on methylation of PP2A was “potent inhibitor”. For the same molecule, in the test on cultured human neurons, the “effect on tau and microtubules in cultured human neurons” value was “tau hyperphosphorylation, reduced binding of tau to MTs, MT depolymerization, and axonal degeneration”.
As to `N[C@@H](CCS)C(=O)O` [homocysteine], in test [2], the “Total PP2A (antibody 6A3)” value is “remained much the same” and the “level of methylated PP2A (antibody 4D9)” value is reported as “declined dramatically”.
With `CSCC[C@H](N)C(=O)O` [methionine], in test [3] (diets with folate), the “Hcy, total plasma homocysteine, ratio methionine-enriched / not enriched” value came to 1.9; the “SAH in brain homogenates, ratio methionine-enriched / not enriched” value turned out to be 0.8; the “SAM in brain homogenates, ratio methionine-enriched / not enriched” value was determined as 0.9. Moreover, in test [3] (diets without folate), the “Hcy, total plasma homocysteine, ratio methionine-enriched / not enriched” value was 0.9; the “SAH in brain homogenates, ratio methionine-enriched / not enriched” value is on record as 1.1; the “SAM in brain homogenates, ratio methionine-enriched / not enriched” value was 1.2. Besides, the “change in plasma Hcy” value in test [3] (excess methionine added to the normal diet) is “approximately two-fold increase”. For the same molecule, the “effect on methylation metabolism” value in test [3] (setting [4]) was “did not have a sizeable significant effect”. Besides, in the test on tau (diets with folate), the “CP13 tau phosphorylation, ratio methionine-enriched / not enriched” value is 1.1; the “PHF1 tau phosphorylation, ratio methionine-enriched / not enriched” value was 1.2; the “TG5 total tau, ratio methionine-enriched / not enriched” value is 1.2. Further, in the test on tau (diets without folate), the “CP13 tau phosphorylation, ratio methionine-enriched / not enriched” value came to 1; the “PHF1 tau phosphorylation, ratio methionine-enriched / not enriched” value stood at 0.9; the “TG5 total tau, ratio methionine-enriched / not enriched” value came to 1. The “effect on tau hyperphosphorylation” value in the test on tau (setting [4]) is “did not have a sizeable significant effect”.
